# Assays:
# AT84 tumors = assay: AT84 orthotopic head and neck tumor study; type: in vivo, C3H mice; settings: intratumoral 300 μg GA, 75 μg CpG or R4 every three days x5; anti-PD-1 250 μg i.p. every three days
# Source text: AT84 cells were derived from a spontaneous sarcomatoid carcinoma in the oral mucosa of a C3H mouse and were graciously donated by Aldo Venuti (Regina Elena National Cancer Institute, Rome, Italy). Cells tested negative for interspecies contamination (Idexx BioResearch) and rodent pathogens (21 pathogen IMPACT I PCR profile), and negative for Mycoplasm contamination prior to animal studies (Lonza, MycoAlert test kit). Idexx CellCheck STR (short tandem repeat) profile: MCA-4-2: 20.3, 21.3; MCA-5-5: 15; MCA-6-4: 18, 19; MCA-6-7: 12; MCA-9-2: 15; MCA-12-1: 16; MCA-15-3: 25.3, 26.3; MCA-18-3: 16; MCA-X-1: 26, 27.
# 4% mannitol was prepared by dissolving D-mannitol (Fisher BioReagents® #M120, Fair Lawn, NJ) in molecular biology grade water (Corning #46-000, Manassas, VA) and sterile filtered through a 0.22 μm PES membrane filter (Millex®-GP #SLGPR33RS, Merck Millipore Ltd., Tullagreen, Carrigtwohill). 1 ml syringe stocks of 20 mg/mL GA (Copaxone®, TEVA Neuroscience, Inc., Overland Park, KS) were donated by The University of Kansas Medical Center. CpG ODN 1826 was purchased from InvivoGen (#tlrl-1826, San Diego, CA) and was resuspended in LAL water to obtain 3.17 mg/mL (500 μM) stocks following manufacture's protocol. All subsequent dilutions were performed using 4% mannitol. R4 polyplexes were prepared as previously described (Pressnall et al). […]
# [1] = in vivo; cited from earlier work
# [2] = test system: differentially expressed genes; assay: CT26 tumor RNA sequencing; type: in vivo, BALB/c mice; settings: intratumoral GA treatment
# Experimental: RNA isolation: RNA was isolated from the tumor as previously described. 22.83Briefly, tumor pieces were stored in RNAlater solution at room temperature for at least one day and then at 4° C. until RNA isolation. Tumor pieces were removed from RNAlater solution and homogenized in 10 mL TRIzol reagent (38% phenol, 0.8 M guanidine thiocyanate, 0.4 M ammonium thiocyanate, 0.1 M sodium acetate, 5% glycerol). Homogenate was divided into 1 mL, 100 μl BCP (Molecular Research Center #BP 151, Cincinnati, OH) was added, shaken vigorously 15 seconds and centrifuged 12,000×g, 10 minutes, 4° C. […] RNA was quantified by Qubit™ using the RNA High Sensitivity Assay Kit (Invitrogen™ #Q32852, Thermo Fisher Scientific Corporation, Eugene, OR) and RNA quality was analyzed using the Agilent 2200 TapeStation (Waldbronn, Germany).
# RNA sequencing: The mRNA library preparation was performed with the NEBNext® Stranded mRNA library kit (New England Biolabs, Inc. #E7760, Ipswich, MA), tagged with a unique dual index sequence, and qPCR quantification of the library pool was performed before sequencing. Sequencing was performed on an Illumina NextSeq2000 P3 with single read 75 bp read lengths (KU Genome Sequencing Core). The reads were aligned with Mus musculus UCSC mm9 reference genome using RNA-Seq Alignment workflow (2.0.2, Illumina, San Diego, CA). […]
# EAE = settings: mice; cited from earlier work
# [3] = in vitro; cited from earlier work
substance,measurement,setting,value
Glatiramer acetate [GA],tumor growth,AT84 tumors,no effect
same,localization after injection,[1],primarily localized at the site of injection
same,gene expression in the tumors,[2],little discernable effect on gene expression
same,effect on EAE,EAE,suppress EAE
same,aggregation in the presence of hyaluronic acid (HA),[3],form aggregates and precipitate in the presence of HA

# — patent US20260028404A1 (UNIVERSITY OF KANSAS, priority 2022, published 2026)
